Assay results from patent US3984482A, “2-(Dihalobenzyl)-6-nitro-4-t-butylphenol and preparation thereof” (Institut de Recherches Chimiques et Biologiques Appliquees …, priority 1967, dated 1976).
Read-outs that look alike come from different tables or passages of the source.

Legend:
[1] = Acute toxicity per os in mice (LD 50, maximum tolerated dose); assay type: in vivo; conditions: mouse, po; for LD50: read-out: Approximate LD 50; for MTD: read-out: Approximate maximum tolerated dose
Method: The acute toxicity per os was determined in mice by the following method. Different doses of each compound were each tested on 10 mice, both male and female, weighing on average from 18 to 22 g; each dose was administered as a suspension in 10% gum arabic or olive oil and each mouse was given a uniform dose of 0.4 ml per 20 g weight of mouse with the aid of a probang.
The mice were starved for two hours before the experiment and the temperatures and behaviour of the animals were observed before the test and 11/2 and 3 hours after ingestion of the compound. After this time they were replaced in their cages and observed for several days.
The number of dead was counted daily and from this was deduced the lethal dose 50 (LD 50), the maxmum tolerated dose (MTD) and the minimum mortal dose MMD).

London staphylococcus = experiment: Bacteriostatic activity in vitro by progressive dilution in culture broth, London staphylococcus; assay type: cell-based, Gram-positive London staphylococcus; conditions: conditions under which the compounds of Formula I were tested
Method: The bacteriostatic activities in vitro of the compounds of Formula I were determined by comparing them with known products, particularly of analogous series. The activity was determined with respect to the specific Gram-positive London staphylococcus as a reference strain for all the compounds.
The test was carried out in a culture broth of the following formula: […]
Indole-free bacteriological peptone
Sodium chloride 5% by weight
The method used involved progressive dilution of the principle tested. The dilutions varied by thousandths between concentrations of one thousandth and one tenth of a thousandth, and by 10 thousandths for concentrations between one tenth of a thousandth and 1/100 of a thousandth, and by hundred thousandths for concentrations between 1/100 of a thousandth and one millionth. If the product was found active at a dilution of one millionth, a new range was made from millionth to millionth to beyond one millionth.
Two dilution series were made independently and the results of the two series must be identical. The readings were carried out after 24 hours.
The figure given in the table is that of the maximum dilution at which the growth of London staphylococcus is inhibited.

| Compound | LD50 ([1]; solvent olive oil) | MTD ([1]; solvent olive oil) | other results |
| --- | --- | --- | --- |
| CC(C)c1ccc(O)c(Cc2ccc(Cl)cc2Cl)c1 [Example 4, 2-(2',4'-dichlorobenzyl)-4-isopropylphenol] | 1700 mg/kg | 500 mg/kg | – |
| CC(C)(C)c1cc(Cl)c(O)c(Cc2ccc(Cl)cc2Cl)c1 [Example 10, 2-(2',4'-dichlorobenzyl)-6-chloro-4-t-butylphenol] | 1500 mg/kg | 500 mg/kg | – |
| CC(C)(C)c1ccc(O)c(Cc2ccc(Cl)cc2Cl)c1 [Example 5, 2-(2',4'-dichlorobenzyl)-4-t-butylphenol] | 1700 mg/kg | 500 mg/kg | – |
| CC(C)c1ccc(O)c(Cc2ccc(Cl)cc2)c1 [Example 2, 2-(4'-chlorobenzyl)-4-isopropylphenol] | 1700 mg/kg | 500 mg/kg | – |
| CCC(C)c1ccc(O)c(Cc2ccc(Cl)cc2)c1 (stereo not shown) [Example 1, 2-(4'-chlorobenzyl)-4-sec-butylphenol] | – | – | LD50 ([1]; solvent 10% gum): 1000 mg/kg; MTD ([1]; solvent 10% gum): 500 mg/kg |
| CC(C)(C)c1cc(Cl)c(O)c(Cc2ccc(Cl)c(Cl)c2)c1 [Example 9, 2-(3',4'-dichlorobenzyl)-6-chloro-4-t-butylphenol] | > 2500 mg/kg | 500 mg/kg | – |
| CCC(C)c1ccc(O)c(Cc2ccc(Cl)c(Cl)c2)c1 (stereo not shown) [Example 8, 2-(3',4'-dichlorobenzyl)-4-s-butylphenol] | 2400 mg/kg | 1000 mg/kg | – |
| CC(C)(C)c1ccc(O)c(Cc2ccc(Cl)c(Cl)c2)c1 [Example 7, 2-(3',4'-dichlorobenzyl)-4-t-butylphenol] | 1500 mg/kg | 500 mg/kg | – |
| CC(C)(C)c1ccc(O)c(Cc2ccc(Cl)cc2)c1 [Example 3, 2-(4'-chlorobenzyl)-4-t-butylphenol] | – | – | LD50 ([1]; solvent 10% gum): 1900 mg/kg |
| Oc1ccccc1 [Phenol] | – | – | inhibiting dilution (London staphylococcus): 1/1000 |
| Cc1ccc(O)cc1 [Para-cresol] | – | – | inhibiting dilution (London staphylococcus): 1/4000 |
